Active and inactive are the calls of the source. The rule behind the calls is not given here.

Bcl-2-related protein A1 (Homo sapiens), sequence (Q16548 whole entry, looked up): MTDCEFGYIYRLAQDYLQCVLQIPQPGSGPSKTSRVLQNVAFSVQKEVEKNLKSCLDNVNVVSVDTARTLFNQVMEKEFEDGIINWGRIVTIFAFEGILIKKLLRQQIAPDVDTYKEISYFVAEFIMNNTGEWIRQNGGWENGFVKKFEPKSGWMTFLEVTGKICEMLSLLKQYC

The first test has as its target Bcl-2-related protein A1 (Homo sapiens) (UniProt Q16548). Kind of test: Bfl-1/Bim complex disruptors – biochemical, multiplexed, bead-based flow cytometry, dose response (AID 1320). For percent span (inhibition): test concentration not given here. The following applies: Bim peptide-Bfl-1 binding, fluorescence.
For the compound `COc1ccc(N2C(=O)C(Cl)=C(Nc3c(C)n(C)n(-c4ccccc4)c3=O)C2=O)cc1`, the EC50 result is “inactive”.
As to `Clc1ccc2c(N/N=C/c3ccccc3Br)ccnc2c1`, the EC50 result was “inactive”.

Staying with this test, now noted: Bim peptide-Bfl-1 binding, fluorescence.
As for `C=CCN1C(=O)/C(=C/c2ccsc2)SC1=S`, the “percent span (inhibition)” value is “inactive”.
Same read-out and setting: the same measure for `COc1ccccc1C1=Nc2cccc3cccc(c23)N1`: “inactive”; for `Cc1ccc2c(c1)C1CN(C)CCC1N2C(=O)Nc1cccc(Cl)c1` (configuration not stated): “inactive”.
On the same count and under the same terms, the same measure for `O=C(CNC(=O)c1ccc(S(=O)(=O)N2CCCC2)cc1)N/N=C/c1ccc(Cl)cc1Cl`: “inactive”; for `NC(=O)c1sc2nc3c(c(-c4ccco4)c2c1N)CCC3`: “inactive”; for `Cn1c(N)c(C(=O)COC(=O)c2cncc(Br)c2)c(=O)n(C)c1=O`: “inactive”.
On the same count and under the same terms, to `OCCC1CN(Cc2ccc3ncccc3c2)CCN1Cc1ccccc1` (configuration not stated) belongs “inactive”; to `O=C1c2ccccc2C(=O)N1c1cccc2cccnc12`, “inactive”.
`CCCn1c(SCC(=O)Nc2ccccc2-c2ccccc2)nnc1-c1ccoc1C`: the “percent span (inhibition)” value is “inactive”.
As to `Cc1cccc(C(=O)N2CCC(c3nc(-c4ccc(S(=O)(=O)N5CCOCC5)cc4)no3)CC2)c1`, the “percent span (inhibition)” value was “inactive”.
On the same count and under the same terms, to `Cc1cc(-c2csc(N)n2)c(C)n1CCC(C)C` belongs “inactive”; to `CN(C)C(Cc1ccccc1)C(=O)c1cccs1` (configuration not stated), “inactive”; to `Cc1cc(Cl)c(S(=O)(=O)NCC2CCCO2)cc1OCC(N)=O` (configuration not stated), “inactive”.
Still for that read-out and setting: the same measure for `O=C(Nc1ccncc1)c1cc2ccccc2o1`: “inactive”.
Take `CN1N=C(C(=O)N2CCCC(C(=O)c3cccc(C(F)(F)F)c3)C2)CCC1=O` (configuration not stated): the “percent span (inhibition)” value was “inactive”.
Turning to `Cc1ccc(NC(=O)CSc2nc3ccccc3c(=O)n2CCCN2CCCCC2)cc1Cl`, the “percent span (inhibition)” value is “inactive”.
As for `CC(C)(C)C(=O)NC(NC(=S)Nc1ccc(S(N)(=O)=O)cc1)C(Cl)(Cl)Cl` (configuration not stated), the “percent span (inhibition)” value was “inactive”.
The same measure, in the same setting: the same measure for `O=C(CSc1nnc(Cc2ccccc2)o1)NCc1ccco1`: “inactive”; for `CCCn1c(N2CCN(C)CC2)nc2c1c(=O)[nH]c(=O)n2C`: “inactive”; for `COc1ccc(NC(=O)C2=C(C)NC(=O)NC2c2cccc(OC)c2OC)c(OC)c1` (configuration not stated): “inactive”.
Same read-out and setting: to `CCN1/C(=C/c2ccc3cc(C)ccc3[n+]2CC)Sc2cc(C)c(C)cc21` belongs “inactive”.
The same measure, in the same setting: the same measure for `CCN(CC)c1nc(N)nc(N(c2ccccc2)c2ccccc2)n1`: “inactive”.
Consider `CCCCc1ccc(NC(=S)NCc2ccc(OC)cc2)cc1`, for which the “percent span (inhibition)” value was “inactive”.
Turning to `COCc1cc(CN2CCCC(CNC(=O)c3ccc(F)cc3)C2)ccc1OC` (configuration not stated), the “percent span (inhibition)” value is “inactive”.
On the same count and under the same terms, the same measure for `CCOC(=O)C1(CC/C(C)=N\NC(N)=O)CC(C)(C)OC1=O` (configuration not stated): “inactive”.
Take `COC(=O)c1ccc(C)c(NC(=O)CCNC(=O)c2ccc([N+](=O)[O-])cc2)c1`: the “percent span (inhibition)” value is “inactive”.
On the same count and under the same terms, to `Cc1cc(C)c2c(N)c3cccc(C)c3nc2n1` belongs “inactive”.
On the same count and under the same terms, the same measure for `COc1cc(/C=N/NC(=O)CN(Cc2ccco2)S(=O)(=O)c2ccccc2)ccc1O`: “inactive”; for `Cc1cccc(N2CCN(C(=S)Nc3ccc4nc(N5CCN(C)CC5)cc(C)c4c3)CC2)c1C`: “inactive”.
With `COc1ccc(CC(=O)Nc2ccccc2Oc2ccccc2)cc1`, the “percent span (inhibition)” value is “inactive”.
Same read-out and setting: to `Cc1ccc(-n2nc(C)c(C(=O)O)n2)c(C)c1` belongs “inactive”; to `CN(CCCOc1ccccc1Br)Cc1ccccc1`, “inactive”.
As to `O=C(CSc1nc2ccsc2c(=O)n1Cc1ccc(C(=O)O)cc1)NCC1CCCO1` (configuration not stated), the “percent span (inhibition)” value was “inactive”.
For the compound `FC(F)(F)c1ccc2c(c1)C1C=CCC1C(c1ccncc1)N2` (configuration not stated), the “percent span (inhibition)” value was “inactive”.
Regarding `Cc1ccc(-c2cc(-c3ccccc3Cl)c(C#N)c(N)n2)o1`, the “percent span (inhibition)” value was “inactive”.
Same read-out and setting: to `S=C(Nc1ccc(N2CCOCC2)cc1)Nc1ccc2nc(-c3ccco3)c(-c3ccco3)nc2c1` belongs “inactive”; to `COCCn1nnnc1CN(Cc1ccco1)Cc1cc2cc3c(cc2[nH]c1=O)OCO3`, “inactive”; to `COc1ccc(OC)c(NC(=O)COC(=O)c2cc3c(s2)CCC3)c1`, “inactive”.
The same measure, in the same setting: the same measure for `CCC(CC)C(=O)Nc1cccc(S(=O)(=O)c2cccc(NC(=O)C(CC)CC)c2)c1`: “inactive”; for `Cc1ccnc(Nc2nc(-c3c(C)nc4sccn34)cs2)c1`: “inactive”.
Consider `CN(C)c1ccc(C(=O)/C=C/c2ccc(Br)cc2)cc1`, for which the “percent span (inhibition)” value was “inactive”.
Same read-out and setting: the same measure for `Cc1ccnc(SCc2cc(=O)c(OC(=O)c3ccc(Cl)c([N+](=O)[O-])c3)co2)n1`: “inactive”.
Regarding `CNC(=S)N(Cc1cccs1)Cc1cc2ccc(OC)cc2[nH]c1=O`, the “percent span (inhibition)” value is “inactive”.
Consider `CCCOc1ccc(-c2c(C(=O)N/N=C/c3ccc(OC)cc3)nnn2-c2nonc2N)cc1`, for which the “percent span (inhibition)” value was “inactive”.
Take `c1ccc(-c2nnc(OCCN3CCOCC3)c3ccccc23)cc1`: the “percent span (inhibition)” value is “inactive”.
Regarding `CC1CCN(C2(O)C(=O)Nc3ccc(Br)cc32)CC1` (configuration not stated), the “percent span (inhibition)” value was “inactive”.
Same read-out and setting: the same measure for `NC(=O)c1c(NC(=O)C2CCCO2)sc2c1CCCCC2` (configuration not stated): “inactive”; for `Cc1cc(C)nc(SCc2cc(=O)c(OC(=O)c3cccc([N+](=O)[O-])c3)co2)n1`: “inactive”; for `Cc1cc(/C=C(/C#N)C(=O)Nc2ccc(Cl)cc2)c(C)n1-c1cccnc1`: “inactive”.
For the compound `Cc1nnc2ccc(-c3cccc(NC(=O)c4ccco4)c3)nn12`, the “percent span (inhibition)” value is “inactive”.
Same read-out and setting: to `O=C(C1=NN[C@@H]2C(=O)N(c3cccc(F)c3)C(=O)[C@H]12)c1ccc2ccccc2n1` belongs “inactive”.
Still for that read-out and setting: to `Cc1ccccc1-c1nc(-c2ccc(NC(=O)c3ccc4c(c3)OCO4)cc2)no1` belongs “inactive”.
In the case of `Cc1ccnc(NS(=O)(=O)c2ccc(NS(=O)(=O)c3cccs3)cc2)n1`, the “percent span (inhibition)” value was “inactive”.
The same measure, in the same setting: the same measure for `Cc1nnc(NCc2n[nH]c(=O)c3ccccc23)c2ccccc12`: “inactive”; for `COc1cc(/C=N/NC(=O)c2ccc([N+](=O)[O-])cc2Cl)cc(Br)c1O`: “inactive”.
`CN(C)CCNC(=O)C(=O)C1C(=O)Nc2ccccc21` (configuration not stated): the “percent span (inhibition)” value was “inactive”.
Still for that read-out and setting: to `CCOC(=O)c1ccc(NC(=O)CSCCC(=O)O)cc1` belongs “inactive”; to `OCCC1CN(Cc2nc3c(s2)CCCC3)CCN1Cc1ccsc1` (configuration not stated), “inactive”; to `CNC(=O)c1sc(-c2ccccn2)nc1C`, “inactive”.
Still for that read-out and setting: to `COc1cccc(N2CC(C(=O)Nc3nnc(SCC(=O)c4ccccc4)s3)CC2=O)c1` (configuration not stated) belongs “inactive”; to `CN(/N=C/C=C/c1ccccc1)C1=NS(=O)(=O)c2ccccc21`, “inactive”; to `Clc1nssc1=Nc1ccccc1`, “inactive”.
Still for that read-out and setting: the same measure for `S=C(NCCc1ccccc1)NCCc1ccccc1`: “inactive”.
With `CCOc1ccc(C2=Nn3c(nnc3-c3ccco3)SC2)cc1`, the “percent span (inhibition)” value was “inactive”.
On the same count and under the same terms, the same measure for `COc1cccc(NC(=O)CSc2nncn2N)c1`: “inactive”.
Same read-out and setting: to `C=CCn1c(C)c(C(C)=O)c(N2CCOCC2)nc1=S` belongs “inactive”; to `Oc1ccc(C=NCC2COc3ccccc3O2)cc1` (configuration not stated), “inactive”.
Same read-out and setting: to `COc1cccc(/C=N/Nc2nn3cnnc3c3ccccc23)c1` belongs “inactive”; to `O=C1/C(=C/c2cccs2)Sc2ccccc21`, “inactive”; to `Cc1cc(NC(=O)CCCC(=O)N(CC(=O)NC2CCCCC2)c2ccccc2)no1`, “inactive”.
Regarding `CCOc1ccc(C(=O)Nc2nnn(CC)n2)cc1`, the “percent span (inhibition)” value is “inactive”.
`O=C(/C=C/c1ccc(-c2ccccc2)o1)c1ccccc1`: the “percent span (inhibition)” value was “inactive”.
Still for that read-out and setting: to `O=C(COC(=O)CCCN=C1NS(=O)(=O)c2ccccc21)NC(=O)NC1CCCC1` belongs “inactive”; to `COc1ccc(CN(C)CC(=O)NC(C)c2ccccc2)c(OC)c1` (configuration not stated), “inactive”; to `COC(=O)c1sc(NC(=O)c2ccc(Cn3cc(Cl)cn3)o2)c(C#N)c1C`, “inactive”.
Regarding `CCOc1ccccc1NC(=O)CSc1nnc2ccc(-c3cccnc3)nn12`, the “percent span (inhibition)” value is “inactive”.
Still for that read-out and setting: the same measure for `Cn1c(CNc2nc(-c3ccccc3)cs2)nnc1SCC(=O)N1CCc2ccccc21`: “inactive”; for `CCN(CC)CCN(C(=O)c1ccc(N2C(=O)CCC2=O)cc1)c1nc2cc3c(cc2s1)OCCO3`: “inactive”.
Same read-out and setting: to `COCCNc1nc(=S)[nH]c2cc(OC)c(OC)cc12` belongs “inactive”.
Still for that read-out and setting: the same measure for `COc1cc2c(cc1OC)C(c1ccccc1F)OC(=O)C2` (configuration not stated): “inactive”; for `CCOc1ccc(N2C(=O)C(Cl)=C(Nc3ccccc3O)C2=O)cc1`: “inactive”.
As to `Cn1cc(CN2C[C@]3(C)C[C@H]2CC(C)(C)C3)c(-c2ccc3c(c2)OCCO3)n1`, the “percent span (inhibition)” value is “inactive”.
As to `O=C(Cn1c(-c2ccccc2)noc1=O)N1CCC(Cc2ccccc2)CC1`, the “percent span (inhibition)” value was “inactive”.
On the same count and under the same terms, the same measure for `O=C(c1ccc(CNS(=O)(=O)c2ccc(Br)cc2)cc1)N1CCCC1`: “inactive”.
Still for that read-out and setting: the same measure for `Cc1ccc(S(=O)(=O)N(C)CC(=O)N2CCc3ccccc32)cc1`: “inactive”.
